The source of these data is paper PMC8151276, “An Integrated Approach toward NanoBRET Tracers for Analysis of GPCR Ligand Engagement” (Molecules, 2021).

Common to all, as to format: binding
One assay deals with T1, RXFP1 (Homo sapiens, UniProt Q9HBX9).
T1 construct: purchased Promega (in-house HiBiT-GPCR construct library, NanoBRET)
T1 sequence (Q9HBX9 1-757): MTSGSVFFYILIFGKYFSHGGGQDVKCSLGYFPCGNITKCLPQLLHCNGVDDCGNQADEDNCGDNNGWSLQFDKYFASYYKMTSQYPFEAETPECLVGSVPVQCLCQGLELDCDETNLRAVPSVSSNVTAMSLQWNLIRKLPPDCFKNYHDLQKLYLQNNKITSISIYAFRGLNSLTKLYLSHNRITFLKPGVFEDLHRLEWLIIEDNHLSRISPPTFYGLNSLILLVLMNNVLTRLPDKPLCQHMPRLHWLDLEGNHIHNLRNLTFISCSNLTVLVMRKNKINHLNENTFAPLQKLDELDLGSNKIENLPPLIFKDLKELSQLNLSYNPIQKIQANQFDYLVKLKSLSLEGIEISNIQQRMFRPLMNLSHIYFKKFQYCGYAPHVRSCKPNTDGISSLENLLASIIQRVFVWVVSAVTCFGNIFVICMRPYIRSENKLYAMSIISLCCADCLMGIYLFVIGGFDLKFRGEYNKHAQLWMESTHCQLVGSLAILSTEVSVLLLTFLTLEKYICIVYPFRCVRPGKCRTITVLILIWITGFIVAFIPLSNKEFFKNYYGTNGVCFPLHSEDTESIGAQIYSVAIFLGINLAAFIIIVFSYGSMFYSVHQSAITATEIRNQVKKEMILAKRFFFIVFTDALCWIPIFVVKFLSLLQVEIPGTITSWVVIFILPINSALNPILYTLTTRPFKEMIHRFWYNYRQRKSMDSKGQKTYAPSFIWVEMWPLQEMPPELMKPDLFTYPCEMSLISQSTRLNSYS
The assay can be described thus: NanoBRET screen HiBiT-RXFP1 in HEK293. The procedure: (§1) Each tracer candidate was screened across the entire library of HiBiT-GPCR constructs using NanoBRET as the detection modality. As depicted in Figure 4A, the specificity of interactions was evaluated through decrease in BRET due to competitive displacement of a bound tracer by excess parental compound. Each tracer was analyzed for binding to each HiBiT-GPCR fusion in the absence and in the presence of competing parental compound. Briefly, HEK293 cells were transfected with HiBiT-GPCR constructs diluted into promoterless DNA to reduce expression and maximize translocation to the cell surface. Each tracer candidate was then screened at concentrations of 1 μM and 0.1 μM across cells expressing these fusions. Cells were treated for 1.5 h with tracer either alone or in the presence of 20 μM competing parental compound (i.e., control). BRET was measured upon addition of purified LgBiT and subsequent complementation with HiBiT genetically fused to a GPCR. The specificity of interactions was assessed through a decrease in BRET signal due to competitive displacement of the bound tracer. To further gauge the robustness of these interactions, the fold response over the control (i.e., BRETtracer/BRETcontrol) was calculated. We chose a 1.5-fold response, which translates to ≥7-fold signal over noise as the minimal threshold required to score an interaction as positive.
(§2) HiBiT-GPCR DNA constructs were diluted in 10 mM Tris pH 8 to a final concentration of 0.01 μg/μL, arrayed in 96-well plates and stored at −20 °C. For transfection, HEK293 cells were suspended in Opti-MEM (without phenol red) supplemented with 2% fetal bovine serum (Seradigm) and 100 units/mL penicillin–streptomycin (Gibco) at a final concentration of 220,000 cells/mL and dispensed into white 96-well plates at 90 μL/well. Subsequent transfections and screens were carried using an Agilent Bravo Automated Liquid Handling Platform. First, the 96-well HiBiT DNA arrays were diluted 25-fold in Opti-MEM (without serum or phenol red) to a final concentration of 0.0004 μg/μL and 20 μL of the diluted DNAs were transferred into new 96-well plates. Next, promoterless carrier DNA (1 μg/μL) was diluted 25-fold (0.04 μg/μL) and then dispensed into the diluted arrays at 20 μL/well. Following brief mixing, Viafect transfection reagent (Promega) diluted 16-fold into Opti-MEM was dispensed into the plates at 40 μL/well. After mixing by pipetting, plates were incubated for 10 min on the pipetting station deck. The DNA-transfection reagent complexes were then added to plates containing cells. To facilitate the screen, 10 μL of DNA-transfection reagent complexes were added in duplicates to the top 4 and bottom 4 rows, resulting in two identical 48-well arrays per plate. Plates with transfected cells were incubated for 18–20 h at 37 °C/5% CO2. A screen of each tracer across the entire library using two different concentrations requires duplicate plates of transfected cells. Depending on the number of tracers being screened, transfections can be scaled up using the same ratios. The next day, for each tracer, four 20× screening solutions in tracer dilution buffer (Promega) were prepared: two duplicates at final concentration of 20 μM and two duplicates at a final concentration of 2 μM. […] The four resulting solutions were diluted 4-fold in Opti-MEM without serum or phenol red to generate 5× solutions (5 µM and 0.5 µM tracer +/− 100 μM competing compound). To screen the library, a BioTek MultiFlo FX liquid dispenser was used to dispense 22.5 µL of tracer solution to the top 4 rows and 22.5 µL tracer + competing compound solution to the 4 bottom rows. Plates were briefly mixed on an orbital shaker and incubated for 1.5 h at room temperature. […] Plates were briefly mixed on an orbital shaker and incubated for 15 min to allow complementation.

A further assay concerns the target T2, GPR50 (Homo sapiens, UniProt Q13585).
T2 construct: purchased Promega (in-house HiBiT-GPCR construct library, NanoBRET)
The assay can be described thus: NanoBRET screen HiBiT-GPR50 in HEK293. As to the method:
as §1, §2
In general terms: Bioluminescence resonance energy transfer reports proximity on the nanometre scale.

The target in the next assay is T3, ADCYAP1R1 (Homo sapiens, UniProt P41586).
T3 construct: purchased Promega (in-house HiBiT-GPCR construct library, NanoBRET)
T3 sequence (P41586 21-468): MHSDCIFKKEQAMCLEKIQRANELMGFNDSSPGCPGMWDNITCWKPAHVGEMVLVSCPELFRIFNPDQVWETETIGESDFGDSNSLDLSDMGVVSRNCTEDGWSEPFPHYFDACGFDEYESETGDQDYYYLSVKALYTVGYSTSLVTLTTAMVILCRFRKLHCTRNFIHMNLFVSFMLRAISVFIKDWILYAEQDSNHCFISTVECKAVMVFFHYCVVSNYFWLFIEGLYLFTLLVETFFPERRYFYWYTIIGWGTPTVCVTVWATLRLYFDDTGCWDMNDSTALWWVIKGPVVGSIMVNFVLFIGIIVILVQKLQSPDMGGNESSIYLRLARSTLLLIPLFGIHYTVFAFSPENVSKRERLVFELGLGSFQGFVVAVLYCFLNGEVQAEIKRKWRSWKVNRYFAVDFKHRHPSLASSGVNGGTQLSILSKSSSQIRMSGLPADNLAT
Put plainly: NanoBRET screen HiBiT-ADCYAP1R1 in HEK293. The procedure:
as §1, §2

T2 sequence (Q13585 whole entry): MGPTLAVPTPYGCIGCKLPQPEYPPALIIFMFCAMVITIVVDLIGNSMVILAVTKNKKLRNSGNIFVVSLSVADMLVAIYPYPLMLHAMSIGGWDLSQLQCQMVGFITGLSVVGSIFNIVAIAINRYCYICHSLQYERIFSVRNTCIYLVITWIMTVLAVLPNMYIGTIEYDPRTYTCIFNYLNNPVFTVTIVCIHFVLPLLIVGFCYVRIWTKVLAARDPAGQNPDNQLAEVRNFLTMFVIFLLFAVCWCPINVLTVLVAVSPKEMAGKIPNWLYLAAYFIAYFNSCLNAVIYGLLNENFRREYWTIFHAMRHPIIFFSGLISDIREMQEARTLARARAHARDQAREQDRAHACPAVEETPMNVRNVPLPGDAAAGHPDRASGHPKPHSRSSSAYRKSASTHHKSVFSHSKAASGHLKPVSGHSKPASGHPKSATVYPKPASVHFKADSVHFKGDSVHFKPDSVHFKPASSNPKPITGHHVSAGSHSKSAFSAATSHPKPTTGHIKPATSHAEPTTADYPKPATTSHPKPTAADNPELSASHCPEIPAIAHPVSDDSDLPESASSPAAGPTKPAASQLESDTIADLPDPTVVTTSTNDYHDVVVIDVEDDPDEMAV

Turning to `COc1ccc2c(n1)c(CCNC(C)=O)cn2CCNC(=O)CCc1ccc2n1[B-](F)(F)[N+]1=C(c3ccc[nH]3)C=CC1=C2` [Azamelatonin-1-NB590], the “NanoBRET Fold Response” value was found to be 1.38 at RXFP1 (0.1μM tracer); 1.20 on RXFP1 (1μM tracer); 0.95 on GPR50 (0.1μM tracer); 0.91 at GPR50 (1μM tracer); 0.76 on ADCYAP1R1 (0.1μM tracer); 0.54 at ADCYAP1R1 (1μM tracer).

For `CC(C)N(CC[C@H](c1ccccc1)c1cc(CCNC(=O)c2ccc(CNC(=O)CCc3ccc4n3[B-](F)(F)[N+]3=C(c5ccc[nH]5)C=CC3=C4)cc2)ccc1O)C(C)C` [Tolterodine-BZ-NB590], the “NanoBRET Fold Response” value amounted to 1.12 on RXFP1 (RXFP1, tracer 0.1μM); 1.23 on RXFP1 (RXFP1, tracer 1μM); 0.94 on GPR50 (GPR50, tracer 0.1μM); 0.39 at GPR50 (GPR50, tracer 1μM); 1.04 on ADCYAP1R1 (ADCYAP1R1, tracer 0.1μM); 1.00 on ADCYAP1R1 (ADCYAP1R1, tracer 1μM).

Regarding `O=C(CCc1ccc2n1[B-](F)(F)[N+]1=C(c3ccc[nH]3)C=CC1=C2)NCCOCCOCCNC(=O)OCCOCCN1CCN(C2=Nc3ccccc3Sc3ccccc32)CC1` [Quetiapine-a-2-NB590], the “NanoBRET Fold Response” value at RXFP1 (RXFP1, tracer 0.1μM) came out at 0.53; on RXFP1 (RXFP1, tracer 1μM) it was 1.01; on GPR50 (GPR50, tracer 0.1μM), 1.11; on GPR50 (GPR50, tracer 1μM), 0.96; on ADCYAP1R1 (ADCYAP1R1, tracer 0.1μM), 1.03; on ADCYAP1R1 (ADCYAP1R1, tracer 1μM) it was 1.11.

`Cc1cc2c(s1)Nc1ccccc1N=C2N1CCN(CCCNC(=O)CCOCCOCCOCCOCCNC(=O)CCc2ccc3n2[B-](F)(F)[N+]2=C(c4ccc[nH]4)C=CC2=C3)CC1` [Olanzapine-a-2-NB590]: the “NanoBRET Fold Response” value on RXFP1 (RXFP1, tracer 0.1μM) stood at 1.25; at RXFP1 (RXFP1, tracer 1μM), 0.79; on GPR50 (GPR50, tracer 0.1μM) it was 1.01; at GPR50 (GPR50, tracer 1μM) it was 1.03; at ADCYAP1R1 (ADCYAP1R1, tracer 0.1μM), 1.02; at ADCYAP1R1 (ADCYAP1R1, tracer 1μM), 1.01.

Regarding `CN(C)CCC=C1c2ccccc2CCc2ccc(C(=O)NCCNC(=O)CCOCCOCCOCCOCCNC(=O)CCc3ccc4n3[B-](F)(F)[N+]3=C(c5ccc[nH]5)C=CC3=C4)cc21` [Amitriptyline-b-2-NB590], the “NanoBRET Fold Response” value is 0.90 at RXFP1 (tracer at 0.1μM); 1.13 at RXFP1 (tracer at 1μM); 0.99 at GPR50 (GPR50, tracer 0.1μM); 0.99 at GPR50 (GPR50, tracer 1μM); 0.99 on ADCYAP1R1 (ADCYAP1R1, tracer 0.1μM); 0.99 at ADCYAP1R1 (ADCYAP1R1, tracer 1μM).

`O=C(CCOCCOCCOCCOCCNC(=O)CCc1ccc2n1[B-](F)(F)[N+]1=C(c3ccc[nH]3)C=CC1=C2)NCCCN1CCN(C2=Nc3cc(Cl)ccc3Nc3ccccc32)CC1` [Clozapine-a-2-NB590]: the “NanoBRET Fold Response” value at RXFP1 (RXFP1, 0.1μM tracer) was determined as 1.12; at RXFP1 (RXFP1, 1μM tracer) it was 1.23; at GPR50 (GPR50, 0.1μM tracer), 1.04; on GPR50 (GPR50, 1μM tracer), 1.00; at ADCYAP1R1 (ADCYAP1R1, 0.1μM tracer), 1.00; on ADCYAP1R1 (ADCYAP1R1, 1μM tracer), 1.06.

Turning to `CN1CCN(C2=Nc3cc(Cl)ccc3Nc3ccc(CNC(=O)CCOCCOCCOCCOCCNC(=O)CCc4ccc5n4[B-](F)(F)[N+]4=C(c6ccc[nH]6)C=CC4=C5)cc32)CC1` [Clozapine-b-2-NB590], the “NanoBRET Fold Response” value at RXFP1 (RXFP1, 0.1μM tracer) amounted to 0.90; on RXFP1 (RXFP1, 1μM tracer), 0.75; at GPR50 (GPR50, 0.1μM tracer) it was 0.98; at GPR50 (GPR50, 1μM tracer), 0.97; at ADCYAP1R1 (ADCYAP1R1, 0.1μM tracer), 1.04; on ADCYAP1R1 (ADCYAP1R1, 1μM tracer), 1.09.

Turning to `Cc1nc2n(c(=O)c1CCN1CCC(c3noc4cc(F)ccc34)CC1)CCCC2OC(=O)NCCOCCOCCOCCOCCNC(=O)CCc1ccc2n1[B-](F)(F)[N+]1=C(c3ccc[nH]3)C=CC1=C2` (stereo not drawn) [Risperidone-2-NB590], the “NanoBRET Fold Response” value at RXFP1 (RXFP1, tracer 0.1μM) is given as 1.26; on RXFP1 (RXFP1, tracer 1μM) it was 0.90; at GPR50 (GPR50, tracer 0.1μM), 0.99; on GPR50 (GPR50, tracer 1μM), 1.01; at ADCYAP1R1 (ADCYAP1R1, tracer 0.1μM) it was 0.99; at ADCYAP1R1 (ADCYAP1R1, tracer 1μM) it was 1.02.
